Laboratory results taken from patent publication US12162861B2, “Dopamine D3 receptor selective antagonists/partial agonists; method of making; and use thereof” (THE UNITED STATES OF AMERICA, AS REPRESENTED BY THE …, priority 2016, dated 2024).
Entries after “also recorded” stand apart in the source; their conditions may differ.

What was measured:
Long-Evans rats = experiment: Oxycodone-induced conditioned place preference (CPP) in rats; assay type: in vivo, rat
Method: CPP was tested in the place-conditioning apparatus (Med Associates, St Albans, VT) consisting of two side compartments (21×28 cm^2) and a central gray connecting area (21×12.5 cm^2); a sliding door separated each compartment from the connecting area. The two side compartments differed in wall color (black vs white), floor type (net vs grid), and illumination. Each rat was first exposed in the CPP apparatus for 15 minutes (preconditioning) and then followed by oxycodone CPP conditioning. […] Oxycodone CPP procedures consisted of 2 days of oxycodone (3 mg/kg, ip) conditioning in one compartment and 2 days of saline conditioning in another compartment, alternatively (e.g., oxycodone-saline-oxycodone-saline). The compartments paired with oxycodone or saline were counterbalanced. […] After oxycodone injection, animals were immediately confined in the assigned compartments for 40 minutes. To potentiate oxycodone CPP formation, animals received 4 days of oxycodone (3 mg/kg, ip, twice daily at 8:00 and 18:00) treatment at home cages. […] In the (Vehicle+vehicle) group, saline was paired with each compartment. Then 24 hours after the last saline or oxycodone conditioning injection, animals were placed in the same three-chamber CPP apparatus for 15 minutes and the time spent in each compartment was recorded. The CPP score was calculated by the time difference (seconds) that animal spent in drug-paired compartment versus saline-paired compartment.

rats = experiment: Thermal response (hot plate) in rats; assay type: in vivo, rat; conditions: hot plate 52 °C, FIG. 13
Method: Methods: Compound (±)-29 was administered 15 minutes before saline or oxycodone challenge. Tests were performed after the rat was placed inside a transparent circular cage on a hot plate (52±0.2° C.). Licking the hind paw or jumping was considered as a sign of thermal nociception. The rat was then immediately removed from the hot plate and the time latency was recorded.

CPP produced by compound alone (Long-Evans rats; rats, 15 mg/kg alone): did not produce CPP
Compound: CCc1cc(Cl)c(OC)c(N2CCN(CC(O)CCNC(=O)c3cc4ccccc4[nH]3)CC2)c1 (racemic) [Compound 29, N-(4-(4-(3-chloro-5-ethyl-2-methoxyphenyl)piperazin-1-yl)-3-hydroxybutyl)-1H-indole-2-carboxamide]
oxycodone induced CPP, posthoc comparison to (Vehicle+oxycodone) group (Long-Evans rats; rats, 15 mg/kg, p<0.05): significant reduction in oxycodone induced CPP
oxycodone-induced CPP (Long-Evans rats; rats, 5, 15 mg/kg ip, 15 min before each oxycodone injection (3 mg/kg ip), FIG. 10): dose-dependently attenuated oxycodone-induced CPP
thermal response after oxycodone challenge (oxycodone induced analgesia) (rats; 30 minutes following oxycodone 2 mg/kg i.p.): no significant effects on animal's thermal response; also recorded: no effect on oxycodone induced analgesia
thermal response after saline challenge (analgesic effect of its own) (rats; 30 minutes following saline 1 ml/kg i.p.): no significant effects on animal's thermal response; also recorded: no analgesic effects of its own
